Reference: patent publication US9145414B2, “1,2,4-triazine-6-carboxamide derivative” (TAIHO PHARMACEUTICAL CO., LTD., priority 2011, dated 2015)
Read-outs that look alike come from different tables or passages of the source. Values belong to the compound of their own block, whether it stands above or below them.

Key:
[1] = system: SU-DHL-6 cells (diffuse large-cell lymphoma cell line); assay: Cell growth inhibition test; assay type: cell-based; conditions: SU-DHL-6 cells, 3 days culture, Table 96, read-out: Cell growth inhibition IC50
Description: The compound of the present invention was serially diluted with dimethyl sulfoxide and then added to an RPMI1640 medium containing 10% FBS. Each resulting solution was added at a concentration of 100 μl/well to the preceding SU-DHL-6 cell culture plate (final concentration of the compound: 10, 3, 1, 0.3, 0.1, 0.03, 0.01, and 0.003 μM). The cells were cultured at 37° C. for 3 days in an incubator containing 5% CO2. The cells thus cultured were left at room temperature for 30 minutes and then centrifuged at 1500 rpm for 3 minutes using a centrifuge (Hitachi Koki Co., Ltd., Himac CF7D2). A 100 μl aliquot of the supernatant was removed from each well to allow 100 μl of the cell culture solution to remain therein. This 100 μl of the remaining cell culture solution was supplemented with an equal amount of CellTiter-Glo Luminescent Cell Viability Assay (Promega KK, Cat#: G7573), and the mixture was then shaken for 1 minute using a plate mixer. The reaction solution was left in the dark for 10 minutes. Then, luminescence intensity derived from live cells of each well was measured using a microplate reader (PerkinElmer Inc., ARVOsx). […] Likewise, the IC50 values (μM) of the control compounds were also calculated and then compared with that of the compound of the present invention. Rate of cell growth inhibition(%)=(C−T)/C×100 T: luminescence intensity (count per second) of a well supplemented with the test compound C: luminescence intensity (count per second) of a well non-supplemented with the test compound

[2] = molecular target: human Syk protein (Homo sapiens (Human), UniProt P43405); assay: Syk kinase inhibition test; assay type: biochemical; conditions: read-out: SYK inhibitory activity IC50
Description: Finally, phosphorylated peptides and non-phosphorylated peptides were separated therebetween using LabChip™ 3000 system (Caliper Life Sciences, Inc., excitation wavelength: 488 nm, detection wavelength: 530 nm). Their respective amounts were measured, and the rate of phosphorylation reaction was then determined from the ratio between the amounts. The concentration at which the compound can inhibit 50% phosphorylation reaction is defined as an IC50 value (μM).
Also, known 1,2,4-triazine-6-carboxamide derivatives A, B, and C (WO2000/075113 (A: compound No. 121 and B: compound No. 154) and WO2000/076980 (C: compound No. 39)) were synthesized as control compounds. Their IC50 values (μM) were calculated in the same way as above and then compared with that of the compound of the present invention.

[3] = molecular target: recombinant human KDR protein (Homo sapiens (Human), UniProt P35968); assay: KDR kinase activity inhibitory effect; assay type: biochemical
Sequence of recombinant human KDR protein (P35968 20-1356): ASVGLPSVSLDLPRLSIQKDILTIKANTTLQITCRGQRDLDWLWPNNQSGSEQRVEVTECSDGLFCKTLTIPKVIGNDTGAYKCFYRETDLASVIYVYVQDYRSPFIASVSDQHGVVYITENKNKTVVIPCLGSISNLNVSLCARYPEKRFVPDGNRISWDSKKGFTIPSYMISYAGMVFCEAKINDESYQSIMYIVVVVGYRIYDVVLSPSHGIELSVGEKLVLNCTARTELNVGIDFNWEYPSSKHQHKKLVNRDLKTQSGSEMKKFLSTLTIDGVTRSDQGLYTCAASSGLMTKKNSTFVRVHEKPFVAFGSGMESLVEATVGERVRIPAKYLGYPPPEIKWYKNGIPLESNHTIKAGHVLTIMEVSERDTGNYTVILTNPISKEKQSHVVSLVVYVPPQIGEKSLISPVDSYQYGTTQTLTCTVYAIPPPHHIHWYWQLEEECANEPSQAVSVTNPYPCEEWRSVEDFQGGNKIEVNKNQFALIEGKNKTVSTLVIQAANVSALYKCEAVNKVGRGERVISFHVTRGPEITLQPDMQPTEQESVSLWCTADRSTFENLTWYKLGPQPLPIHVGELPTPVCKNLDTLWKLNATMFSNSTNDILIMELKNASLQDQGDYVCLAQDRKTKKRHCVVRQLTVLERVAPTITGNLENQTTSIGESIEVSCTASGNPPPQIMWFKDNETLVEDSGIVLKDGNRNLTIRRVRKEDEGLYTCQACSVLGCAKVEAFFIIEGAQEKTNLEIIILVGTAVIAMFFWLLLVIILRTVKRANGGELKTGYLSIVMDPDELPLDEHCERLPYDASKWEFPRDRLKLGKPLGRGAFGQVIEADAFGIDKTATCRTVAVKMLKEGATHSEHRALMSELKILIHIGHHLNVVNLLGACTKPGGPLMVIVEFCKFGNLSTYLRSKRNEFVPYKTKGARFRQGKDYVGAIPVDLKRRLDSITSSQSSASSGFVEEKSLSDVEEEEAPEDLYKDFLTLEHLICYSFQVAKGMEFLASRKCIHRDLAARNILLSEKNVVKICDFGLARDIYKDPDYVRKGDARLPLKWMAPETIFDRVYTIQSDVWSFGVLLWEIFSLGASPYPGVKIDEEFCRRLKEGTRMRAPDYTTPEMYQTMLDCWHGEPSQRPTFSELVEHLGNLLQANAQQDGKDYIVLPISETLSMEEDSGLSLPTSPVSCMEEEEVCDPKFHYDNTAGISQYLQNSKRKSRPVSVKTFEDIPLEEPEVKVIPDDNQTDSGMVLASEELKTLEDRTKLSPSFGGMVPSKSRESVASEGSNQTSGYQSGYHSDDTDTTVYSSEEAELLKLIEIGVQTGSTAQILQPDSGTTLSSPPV
Description: The purified recombinant human KDR protein used in the test is a house purified product. […] The mixture was incubated at 30° C. for 180 minutes to perform kinase reaction. […] Their respective amounts were measured, and the rate of phosphorylation reaction was then determined from the ratio between the amounts.

[4] = system: recombinant human Aurora B protein; assay: Aurora B kinase activity inhibitory effect; assay type: biochemical; conditions: Aurora B IC50 relative to Syk IC50
Description: (§1) The reaction solution was left standing in the dark at room temperature for 120 minutes. Then, fluorescence polarization values obtained by measurement using PHERAstar (BMG LABTECH JAPAN Ltd., excitation wavelength: 485 nm, detection wavelength: 520 nm) were used to determine the rate of phosphorylation reaction.

[5] = molecular target: recombinant human Aurora B protein (Homo sapiens (Human), UniProt Q96GD4); assay: Aurora B kinase activity inhibitory effect; assay type: biochemical; conditions: Table 97; read-out: AuroraB inhibitory activity IC50
Sequence of recombinant human Aurora B protein (Homo sapiens (Human), UniProt Q96GD4) (Q96GD4 whole entry): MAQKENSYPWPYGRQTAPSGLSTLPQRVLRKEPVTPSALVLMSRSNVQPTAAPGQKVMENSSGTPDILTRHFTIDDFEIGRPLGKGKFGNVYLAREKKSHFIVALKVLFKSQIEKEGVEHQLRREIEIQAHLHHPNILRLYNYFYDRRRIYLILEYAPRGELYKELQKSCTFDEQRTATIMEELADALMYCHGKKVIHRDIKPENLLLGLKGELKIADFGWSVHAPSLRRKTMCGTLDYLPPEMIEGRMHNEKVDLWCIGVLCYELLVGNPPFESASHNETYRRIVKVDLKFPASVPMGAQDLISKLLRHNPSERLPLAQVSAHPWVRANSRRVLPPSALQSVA
Description: as §1

Structure (SMILES): NC(=O)c1nnc(N[C@@H]2CCCC[C@@H]2N)nc1Nc1cc(-c2ccccn2)cs1 [Example 77, 3-(((1R,2S)-2-aminocyclohexyl)amino)-5-((4-(pyridin-2-yl)thiophen-2-yl)amino)-1,2,4-triazine-6-carboxamide]
IC50 ([1]; Homo sapiens, 72 h): 0.082 µM
IC50 ([2]; Table 95): 0.00042 µM

Structure (SMILES): Cc1cc(Nc2nc(N[C@@H]3CCCC[C@@H]3N)nnc2C(N)=O)cc2nn(C(F)F)cc12 [Example 265, 3-(((1R,2S)-2-aminocyclohexyl)amino)-5-((2-(difluoromethyl)-4-methyl-2H-indazol-6-yl)amino)-1,2,4-triazine-6-carboxamide]
IC50 ([1]; Homo sapiens, 72 h): 0.125 µM
IC50 ([2]; Table 95): 0.0005 µM

Structure (SMILES): Cc1cccc(Nc2cc(NCCN(C)C)ccc2C(N)=O)c1 [C, reference compound]
IC50 [1]: > 10 µM
IC50 ([2]; Table 95): 0.62 µM

Structure (SMILES): Cn1ccc(-n2ccc3c(Nc4nc(N[C@@H]5CCCC[C@@H]5N)nnc4C(N)=O)cccc32)n1 [Example 25, 3-((1R,2S)-2-aminocyclohexylamino)-5-(1-(1-methyl-1H-pyrazol-3-yl)-1H-indol-4-ylamino)-1,2,4-triazine-6-carboxamide]
IC50 ([1]; Homo sapiens, 72 h): 0.1 µM
IC50 ([2]; Table 95): 0.00036 µM

Structure (SMILES): NC(=O)c1nnc(N[C@@H]2CCOC[C@@H]2N)nc1Nc1ccc2cnn(C(F)F)c2c1 [Example 170]
IC50 ([1]; Homo sapiens, 72 h): 0.178 µM
IC50 ([2]; Table 95): 0.00058 µM

Structure (SMILES): Cn1cc2cc(Nc3nc(N[C@@H]4CCOC[C@@H]4N)nnc3C(N)=O)cc(-c3ccccc3)c2n1 [Example 257, 3-(((3R,4R)-3-aminotetrahydro-2H-pyran-4-yl)amino)-5-((2-methyl-7-phenyl-2H-indazol-5-yl)amino)-1,2,4-triazine-6-carboxamide]
IC50 ([1]; Homo sapiens, 72 h): 0.049 µM
IC50 ([2]; Table 95): 0.00038 µM

Structure (SMILES): NC(=O)c1nnc(N[C@@H]2CCCC[C@@H]2N)nc1Nc1cccc2c1ccn2[C@H]1CC[C@H](O)CC1 [Example 73, 3-(((1R,2S)-2-aminocyclohexyl)amino)-5-((1-(trans-4-hydroxycyclohexyl)-1H-indol-4-yl)amino)-1,2,4-triazine-6-carboxamide]
IC50 ([1]; Homo sapiens, 72 h): 0.053 µM
IC50 ([2]; Table 95): 0.00037 µM

Structure (SMILES): NC(=O)c1nnc(N[C@@H]2CCOC[C@@H]2N)nc1Nc1cccc2c1ccn2C1CCC1 [Example 277]
IC50 ([1]; Homo sapiens, 72 h): 0.181 µM
IC50 ([2]; Table 95): 0.00041 µM

Structure (SMILES): CCn1ncc2c(C)cc(Nc3nc(N[C@@H]4CCCC[C@@H]4N)nnc3C(N)=O)cc21 [Example 97, 3-(((1R,2S)-2-aminocyclohexyl)amino)-5-((1-ethyl-4-methyl-1H-indazol-6-yl)amino)-1,2,4-triazine-6-carboxamide]
IC50 ([1]; Homo sapiens, 72 h): 0.191 µM
IC50 ([2]; Table 95): 0.00039 µM

Structure (SMILES): NC(=O)c1ccc(NC2CCCCC2N)cc1Nc1cccc2c1OCO2 (stereo not shown) [B, reference compound]
IC50 [1]: 1.9 µM
IC50 ([2]; Table 95): 0.0068 µM

Structure (SMILES): COC[C@H](N)[C@@H](C)Nc1nnc(C(N)=O)c(Nc2cc(C)c3nn(C(C)(C)C)cc3c2)n1 [Example 274]
IC50 ([1]; Homo sapiens, 72 h): 0.155 µM
IC50 ([2]; Table 95): 0.00095 µM

Structure (SMILES): Cc1cc(Nc2nc(N[C@@H]3CCCC[C@@H]3N)nnc2C(N)=O)c2ccn([C@H]3CC[C@H](O)CC3)c2c1 [Example 78]
IC50 ([1]; Homo sapiens, 72 h): 0.085 µM
IC50 ([2]; Table 95): 0.00053 µM

Structure (SMILES): NC(=O)c1ccc(NC2CCCCC2N)cc1Nc1ccccc1Br (stereo not shown) [A, reference compound]
IC50 [1]: 2 µM
IC50 ([2]; Table 95): 0.033 µM

Structure (SMILES): NC(=O)c1nnc(N[C@@H]2CCCC[C@@H]2N)nc1Nc1ccc2cnn(C(F)F)c2c1 [Example 165]
IC50 ([1]; Homo sapiens, 72 h): 0.177 µM
IC50 ([2]; Table 95): 0.00036 µM

Structure (SMILES): CC[C@H](N)CNc1nnc(C(N)=O)c(Nc2cccc3sccc23)n1 [Example 245]
IC50 ([1]; Homo sapiens, 72 h): 0.158 µM
IC50 ([2]; Table 95): 0.00035 µM

Structure (SMILES): NC(=O)c1nnc(N[C@@H]2CCCC[C@@H]2N)nc1Nc1cccc2c1ccn2CCO [Example 93, 3-(((1R,2S)-2-aminocyclohexyl)amino)-5-((1-(2-hydroxyethyl)-1H-indol-4-yl)amino)-1,2,4-triazine-6-carboxamide]
IC50 ([1]; Homo sapiens, 72 h): 0.149 µM
IC50 ([2]; Table 95): 0.00067 µM

Structure (SMILES): CCn1ncc2ccc(Nc3nc(N[C@@H]4CCCC[C@@H]4N)nnc3C(N)=O)cc21 [Example 154]
IC50 ([1]; Homo sapiens, 72 h): 0.138 µM
IC50 ([2]; Table 95): 0.00043 µM

Structure (SMILES): Cc1cc(Nc2nc(N[C@@H]3CCOC[C@@H]3N)nnc2C(N)=O)cc2cn(C(C)(C)C)nc12 [Example 61, 3-(((3R,4R)-3-aminotetrahydro-2H-pyran-4-yl)amino)-5-((2-(tert-butyl)-7-methyl-2H-indazol-5-yl)amino)-1,2,4-triazine-6-carboxamide]
IC50 ([1]; Homo sapiens, 72 h): 0.164 µM
IC50 ([2]; Table 95): 0.00037 µM

Structure (SMILES): Cc1cc(Nc2nc(N[C@@H]3CCOC[C@@H]3N)nnc2C(N)=O)c2ccn(C)c2c1 [Example 267]
IC50 ([1]; Homo sapiens, 72 h): 0.128 µM
IC50 ([2]; Table 95): 0.00041 µM

Structure (SMILES): Cn1ccc2c(Nc3nc(N[C@@H]4CCCC[C@@H]4N)nnc3C(N)=O)cccc21 [Example 3, 3-((1R,2S)-2-aminocyclohexylamino)-5-(1-methyl-H-indol-4-ylamino)-1,2,4-triazine-6-carboxamide]
IC50 ([1]; Homo sapiens, 72 h): 0.091 µM
IC50 ([2]; Table 95): 0.00036 µM

Structure (SMILES): NC(=O)c1nnc(N[C@@H]2CCCC[C@@H]2N)nc1Nc1ccc2nn(C(F)F)cc2c1 [Example 57, 3-((1R,2S)-2-aminocyclohexylamino)-5-(2-(difluoromethyl)-2H-indazol-5-ylamino)-1,2,4-triazine-6-carboxamide]
IC50 ([1]; Homo sapiens, 72 h): 0.179 µM
IC50 ([2]; Table 95): 0.00052 µM

The next compounds have a lower IC50 ([2]; Table 95) than those just listed; values first:

IC50 ([1]; Homo sapiens, 72 h): 0.075 µM
IC50 ([2]; Table 95): 0.00033 µM
Structure (SMILES): Cc1cc(Nc2nc(N[C@@H]3CCCC[C@@H]3N)nnc2C(N)=O)cc2cccnc12 [Example 259, 3-(((1R,2S)-2-aminocyclohexyl)amino)-5-((8-methylquinolin-6-yl)amino)-1,2,4-triazine-6-carboxamide]

IC50 ([1]; Homo sapiens, 72 h): 0.106 µM
IC50 ([2]; Table 95): 0.00033 µM
Structure (SMILES): Cc1cc(Nc2nc(N[C@@H]3CCCC[C@@H]3N)nnc2C(N)=O)c2ccn(C)c2c1 [Example 60, 3-(((1R,2S)-2-aminocyclohexyl)amino)-5-((1,6-dimethyl-1H-indol-4-yl)amino)-1,2,4-triazine-6-carboxamide]

IC50 ([1]; Homo sapiens, 72 h): 0.092 µM
IC50 ([2]; Table 95): 0.00029 µM
Structure (SMILES): NC(=O)c1nnc(N[C@@H]2CCCC[C@@H]2N)nc1Nc1cc(-c2ccccc2)cs1 [Example 164]

IC50 ([1]; Homo sapiens, 72 h): 0.06 µM
IC50 ([2]; Table 95): 0.00029 µM
Structure (SMILES): COC[C@H](N)[C@@H](C)Nc1nnc(C(N)=O)c(Nc2cc(-c3ccccc3)c3nn(C)cc3c2)n1 [Example 258]

IC50 ([1]; Homo sapiens, 72 h): 0.027 µM
IC50 ([2]; Table 95): 0.00028 µM
IC50 ([2]; Table 97): 0.00028 µM
KDR inhibitory activity: Selectivity for Syk ([3]; KDR IC50 relative to Syk IC50): (>7000 times)
IC50 ([3]; Table 97): > 2 µM
AuroraB inhibitory activity: Selectivity for Syk [4]: (1500 times)
IC50 [5]: 0.42 µM
Structure (SMILES): NC(=O)c1nnc(N[C@@H]2CCCC[C@@H]2N)nc1Nc1cc2ccccc2s1 [Example 161]

IC50 ([1]; Homo sapiens, 72 h): 0.18 µM
IC50 ([2]; Table 95): 0.00026 µM
Structure (SMILES): NC(=O)c1nnc(N[C@@H]2CCCC[C@@H]2N)nc1Nc1ccc2sccc2c1 [Example 220]

IC50 ([1]; Homo sapiens, 72 h): 0.138 µM
IC50 ([2]; Table 95): 0.00026 µM
Structure (SMILES): Cc1cc(Nc2nc(N[C@@H]3CCCC[C@@H]3N)nnc2C(N)=O)cc2nn(C)cc12 [Example 91, 3-(((1R,2S)-2-aminocyclohexyl)amino)-5-((2,4-dimethyl-2H-indazol-6-yl)amino)-1,2,4-triazine-6-carboxamide diformate]

IC50 ([1]; Homo sapiens, 72 h): 0.049 µM
IC50 ([2]; Table 95): 0.00026 µM
Structure (SMILES): Cn1cc(-n2ccc3c(Nc4nc(N[C@@H]5CCCC[C@@H]5N)nnc4C(N)=O)cccc32)cn1 [Example 67, 3-(((1R,2S)-2-aminocyclohexyl)amino)-5-((1-(1-methyl-1H-pyrazol-4-yl)-1H-indol-4-yl)amino)-1,2,4-triazine-6-carboxamide]

IC50 ([1]; Homo sapiens, 72 h): 0.024 µM
IC50 ([2]; Table 95): 0.00023 µM
Structure (SMILES): Cn1cc2cc(Nc3nc(N[C@@H]4CCCC[C@@H]4N)nnc3C(N)=O)cc(-c3ccccc3)c2n1 [Example 65, 3-(((1R,2S)-2-aminocyclohexyl)amino)-5-((2-methyl-7-phenyl-2H-indazol-5-yl)amino)-1,2,4-triazine-6-carboxamide]

IC50 ([1]; Homo sapiens, 72 h): 0.041 µM
IC50 ([2]; Table 95): 0.00022 µM
Structure (SMILES): NC(=O)c1nnc(N[C@@H]2CCCC[C@@H]2N)nc1Nc1cccc2c1ccn2C(F)F [Example 26, 3-((1R,2S)-2-aminocyclohexylamino)-5-(1-(difluoromethyl)-1H-indol-4-ylamino)-1,2,4-triazine-6-carboxamide]
